In US20230219951A1, “PYRIDINE-PYRIMIDINE DERIVATIVE, PREPARATION METHOD THEREFOR AND PHARMACEUTICAL USE THEREOF” (Jiangsu Hengrui Pharmaceuticals Co., Ltd., priority 2020, published 2023):

Assays:
[1] = tested on: ERK phosphorylation of H358 cells; experiment: Inhibition of ERK phosphorylation of H358 cells (HTRF pERK/total ERK); format: cell-based; conditions: Homo sapiens, NCI-H358, 1 h incubation, pERK/total ERK ratio
Procedure, shortened: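 H358 (KRAS G12C) cells were treated 1 h at 37°C with compound, 9 points by 5-fold dilution from 10 μM (final), 0.1% DMSO blank. Lysates were probed by HTRF with phospho-ERK1/2 and total-ERK1/2 antibodies overnight at room temperature, and IC50 was fitted from the pERK/total ERK ratio.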

hERG potassium channel = molecular target: T1, hERG potassium channel (Homo sapiens, UniProt Q12809); experiment: Manual patch-clamp of hERG potassium currents in CHO cells stably expressing hERG channel; format: cell-based; conditions: read-out: IC50(μM), blocking effect on the hERG potassium ion channel
T1 construct: host or cells: CHO
Description: This example is intended to test the blocking effect of the compounds of the present disclosure on hERG potassium currents in a stable cell strain transfected with an hERG potassium channel by a manual patch-clamp assay.
The cells used in this experiment were from a CHO cell line (provided by Sophion Bioscience, Denmark) transfected with hERG cDNA and stably expressing hERG channel at cell passage number of P5. Cells were cultured in a medium containing the following components (all from Invitrogen): Ham's F12 medium, 10% (v/v) inactivated fetal bovine serum, […] hygromycin B, and […] geneticin. CHO hERG cells were grown in a culture dish containing the above culture medium and cultured in an incubator at 37° C. with 5% CO2. […]
In this experiment, a manual patch-clamp system (HEKA EPC-10 signal amplifier and digital conversion system, purchased from HEKA Electronics, Germany) was used for whole cell current recording. […] After the hERG potassium currents recorded in the above step were stable under the continuous extracellular fluid perfusion in the recording chamber, the drug to be tested could be added for perfusion until the inhibition effect of the drug on the hERG current reached a stable state. […]
The blocking effect of the compound of the present disclosure on hERG potassium currents was determined by the above test.

T1 sequence (Q12809 whole entry): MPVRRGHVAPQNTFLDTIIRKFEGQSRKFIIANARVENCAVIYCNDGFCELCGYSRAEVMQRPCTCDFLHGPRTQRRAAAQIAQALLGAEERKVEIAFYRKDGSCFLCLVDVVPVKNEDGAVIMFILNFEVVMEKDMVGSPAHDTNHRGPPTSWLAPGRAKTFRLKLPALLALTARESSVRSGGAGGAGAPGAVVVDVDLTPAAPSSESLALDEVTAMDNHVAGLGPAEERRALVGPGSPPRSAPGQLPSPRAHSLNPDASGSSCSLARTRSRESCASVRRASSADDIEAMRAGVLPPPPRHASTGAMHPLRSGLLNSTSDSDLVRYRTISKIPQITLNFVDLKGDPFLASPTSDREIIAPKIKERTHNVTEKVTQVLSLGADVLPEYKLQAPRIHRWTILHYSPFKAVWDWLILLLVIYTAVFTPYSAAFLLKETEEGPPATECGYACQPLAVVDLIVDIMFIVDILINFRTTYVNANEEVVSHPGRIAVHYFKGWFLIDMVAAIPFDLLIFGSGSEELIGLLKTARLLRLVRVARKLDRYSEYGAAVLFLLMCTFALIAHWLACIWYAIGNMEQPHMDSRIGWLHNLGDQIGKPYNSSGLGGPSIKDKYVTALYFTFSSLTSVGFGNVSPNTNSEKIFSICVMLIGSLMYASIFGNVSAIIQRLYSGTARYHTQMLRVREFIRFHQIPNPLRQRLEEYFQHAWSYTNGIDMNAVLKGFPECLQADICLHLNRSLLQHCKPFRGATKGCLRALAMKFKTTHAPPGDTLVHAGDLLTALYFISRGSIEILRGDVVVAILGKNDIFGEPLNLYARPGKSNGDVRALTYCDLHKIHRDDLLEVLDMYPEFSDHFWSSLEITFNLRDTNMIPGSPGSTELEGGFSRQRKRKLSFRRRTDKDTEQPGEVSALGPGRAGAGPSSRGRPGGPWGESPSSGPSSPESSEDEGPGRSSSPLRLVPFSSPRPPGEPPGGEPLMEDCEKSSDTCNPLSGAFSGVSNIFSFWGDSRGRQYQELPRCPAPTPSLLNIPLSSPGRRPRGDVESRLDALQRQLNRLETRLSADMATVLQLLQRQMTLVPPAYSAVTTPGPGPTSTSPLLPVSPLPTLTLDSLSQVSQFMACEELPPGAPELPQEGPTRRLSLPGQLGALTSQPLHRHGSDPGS

For `Cc1nc(N[C@H](C)c2cccc(C(F)F)c2F)c2cc([C@]3(O)CC[C@@H](O)CC3)c(=O)[nH]c2n1` [Example 18-p1, 4-(((R)-1-(3-(difluoromethyl)-2-fluorophenyl)ethyl)amino)-6-((1s,4S)-1,4-dihydroxycyclohexyl)-2-methylpyrido[2,3-d]pyrimidin-7(8H)-one], the IC50 [1] was 51 nM and the IC50 (hERG potassium channel) was greater than 30 µM.
